# US9504685B2, “Method for treating a pulmonary hypertension condition” (Gilead Sciences, Inc., priority 2006, dated 2016)
# Like-named read-outs stand apart in the source and are kept apart here.
# Test system: subjects with PAH
# Conditions: for Subjects who died: 12 weeks
# Method: All adverse effects (AEs) reported during the course of the study were reported and summaries of all AEs were prepared showing frequencies and percentages of: • (a) subjects with at least 1 AE; • (b) subjects with possibly or probably drug-related AEs; • (c) subjects with at least 1 serious AE (SAE); • (d) subjects with an AE leading to study discontinuation; and • (e) subjects who died. […]
# The safety population was defined as all randomized subjects who received at least 1 dose of study drug. Subjects were considered as belonging to a treatment group according to the highest actual treatment dose received. Any subject who received 10 mg ambrisentan on any day was included in the 10 mg group for safety analyses in the entire study. Any subject who received 5 mg ambrisentan on any day and never received 10 mg ambrisentan on any day was included in the 5 mg group for safety analyses in the entire study. Otherwise, any subject who received only placebo was included in the placebo group for safety analyses in the study.
# [1] = male subjects, 10 mg once daily
smiles,measurement,setting,value
COC(c1ccccc1)(c1ccccc1)[C@H](Oc1nc(C)cc(C)n1)C(=O)O [ambrisentan],subjects who died during the study or within 30 days of the last dose,5 mg once daily,1.5%
same,Subjects who died,5 mg once daily,1 (1.5) subjects (% of safety populati
same,subjects who died during the study or within 30 days of the last dose,10 mg once daily,1.5%
same,Subjects who died,10 mg once daily,1 (1.5) subjects (% of safety populati
same,Subjects who died,combined 5 mg and 10 mg groups,2 (1.5) subjects (% of safety populati
same,"effect on PT, INR or weekly warfarin-type anticoagulant dose",in vivo,no effect
same,male fertility hormones and serial semen samples,in vivo,did not suggest that ambrisentan was associated with an adverse effect on male reproductive potential
same,mean changes from baseline at Week 12 for serum ALT and AST,in vivo,no notable mean changes
same,subjects who developed elevated serum aminotransferase concentrations >3×ULN,in vivo,None
same,change from baseline in testosterone concentration at Week 12,"male subjects, 5 mg once daily",-0.099 ± 3.48 nmol/L
same,change from baseline in testosterone concentration at Week 12,[1],-0.099 ± 3.48 nmol/L
same,change over baseline in FSH concentration at Week 12,[1],+1.83 IU/liter
